From paper PMC11915372, “Identification of a Series Containing a Pentafluorophenyl Moiety That Targets Pks13 to Inhibit Growth of Mycobacterium tuberculosis” (ACS Infectious Diseases, 2025)
Values after ≈ are worked out from the molar mass of the structure shown. Where two headings read alike, the source gives them in different places.

Columns and labels:
[1] = assay type: in vitro ADME, mouse
HepG2 cells = test: HepG2 cytotoxicity; settings: Homo sapiens
Excerpt: Assays to establish HepG2 cytotoxicity, in vitro microsomal/hepatocyte metabolic stability, aqueous kinetic solubility, and in vivo pharmacokinetic profiles were all performed as previously described.[15],[35]−[37]

M. tuberculosis (H37Rv) = test: microbe, parasite or virus in culture; assay type: cell-based, Mycobacterium tuberculosis; settings: for MIC: Mycobacterium tuberculosis, H37RV
[2] = assay type: in vitro ADME, mouse; remark: listed apart in the source
physchem [3] = settings: pH 7.4
physchem [4] = assay type: physicochemical
[5] = HepG2, read-out: HepG2 inhibitory concentration (IC50)
[6] = read-out: Wk2_7H9/DPPC/ casitone/ Tyloxapol MIC
[7] = read-out: Wk2_ 7H9/DPPC/ cholesterol/BSA/ Tyloxapol MIC
[8] = read-out: Wk2_7H9/glucose/ BSA/Tyloxapol MIC
[9] = read-out: Wk2_7H9/glucose/ casitone/ Tyloxapol MIC
[10] = pH 7.4, aqueous buffer, kinetic from dmso stock
[11] = intrinsic clearance (Cli), CD1 mouse liver microsomes, Tables 1-4
[12] = kinetic solubility in water, read-out: Kin. Sol
[13] = pH 7.4, aqueous buffer, kinetic from dmso stock, pH7.4, read-out: Kinetic Solubility pH7.4

Row | Compound | Hepatocyte Cli ([1]; mouse) [mL/min/g] | Mouse Heps Cl ([1]; mouse, hepatocytes) | IC50 (HepG2 cells; [5]) [µM] | MIC (M. tuberculosis (H37Rv); read-out: H37Rv MIC A) [µM] | MIC (M. tuberculosis (H37Rv); read-out: H37Rv MIC B) [µM] | MIC (M. tuberculosis (H37Rv); [6]) [µM] | MIC (M. tuberculosis (H37Rv); [7]) [µM] | MIC (M. tuberculosis (H37Rv); [8]) [µM] | MIC (M. tuberculosis (H37Rv); [9]) [µM] | Microsomal Cli ([2]; CD1, mouse) [mL/min/g] | Mouse micro Cl ([2]; mouse, microsomes) | solubility kinetic (physchem [4]; [10]) [µM] | solubility kinetic (physchem [4]; read-out: Kin. Sol) [µM] | also measured
1 | CCOC(=O)c1nc(N(C)C)oc1NC(=O)c1c(F)c(F)c(F)c(F)c1F [Compound 32, CCOC(=O)c1nc(oc1NC(=O)c1c(c(c(c(c1F)F)F)F)F)N(C)C] | 22 | 22 mL/min/g | > 100 | 0.2 (≈ 0.0787 µg/mL) | 0.6 (≈ 0.236 µg/mL) | 0.2 (≈ 0.0787 µg/mL) | 0.6 (≈ 0.236 µg/mL) | 1.2 (≈ 0.472 µg/mL) | 0.3 (≈ 0.118 µg/mL) | 1.4 | 1.4 mL/min/g | 221 (≈ 86.9 µg/mL) | 221 (≈ 86.9 µg/mL) | chromatographic logD (physchem [3]): 2.4
2 | CN(C)c1ccnc2oc(-c3c(F)c(F)c(F)c(F)c3F)nc12 [Compound 13, CN(C)c1ccnc2oc(nc12)-c1c(c(c(c(c1F)F)F)F)F] | >50 | >50 mLmin/g | – | 0.6 (≈ 0.198 µg/mL) | 3.1 (≈ 1.02 µg/mL) | 0.6 (≈ 0.198 µg/mL) | 3.1 (≈ 1.02 µg/mL) | 2.3 (≈ 0.757 µg/mL) | 0.6 (≈ 0.198 µg/mL) | >50 | >50 mLmin/g | 1.6 (≈ 0.527 µg/mL) | 1.6 (≈ 0.527 µg/mL) | –
3 | Oc1ncnc2oc(-c3c(F)c(F)c(F)c(F)c3F)nc12 [Compound 15, Oc1ncnc2oc(nc12)-c1c(c(c(c(c1F)F)F)F)F] | >50 | >50 mLmin/g | 88 | 1.4 (≈ 0.424 µg/mL) | 9.4 (≈ 2.85 µg/mL) | 1.4 (≈ 0.424 µg/mL) | 9.4 (≈ 2.85 µg/mL) | 5.4 (≈ 1.64 µg/mL) | 3.9 (≈ 1.18 µg/mL) | 2.8 | 2.81 mLmin/g | 149 (≈ 45.2 µg/mL) | 149 (≈ 45.2 µg/mL) | –
4 | CN(C)c1ncnc2sc(-c3ccccc3)nc12 [Compound 3, CN(C)c1ncnc2sc(nc12)-c1ccccc1] | – | – | > 100 | > 50 | > 50 | > 50 | > 50 | > 50 | > 50 | >50 | >50 mLmin/g | – | – | –
5 | Fc1c(F)c(F)c(-c2nc3cncnc3s2)c(F)c1F [Compound 11, Fc1c(c(c(c(c1F)F)-c1nc2cncnc2s1)F)F] | – | – | 35 | 0.34 (≈ 0.103 µg/mL) | 6.3 (≈ 1.91 µg/mL) | 0.342 (≈ 0.104 µg/mL) | 6.3 (≈ 1.91 µg/mL) | 4.7 (≈ 1.43 µg/mL) | 0.279 (≈ 0.0846 µg/mL) | 18 | 18 mLmin/g | 103 (≈ 31.2 µg/mL) | 103 (≈ 31.2 µg/mL) | –
6 | CCOC(=O)c1c(NC(=O)c2c(F)c(F)c(F)c(F)c2F)ncn1C [Compound 21, CCOC(=O)c1c(ncn1C)NC(=O)c1c(c(c(c(c1F)F)F)F)F] | – | – | > 100 | 2.3 (≈ 0.835 µg/mL) | 6.3 (≈ 2.29 µg/mL) | 2.3 (≈ 0.835 µg/mL) | 6.3 (≈ 2.29 µg/mL) | 4.7 (≈ 1.71 µg/mL) | 1.6 (≈ 0.581 µg/mL) | – | – | – | – | loss of MIC potency (M. tuberculosis (H37Rv); relative to comparator of the series (21 vs thiophenes; 42 vs 24)): 10 fold; Mouse micro Cl [2, 11]: 8.6 mLmin/g; Microsomal Cli ([2]; supplement data table): 8.6 mL/min/g; chromatographic logD (physchem [3]): 2.2; solubility kinetic (physchem [4]; [12]): 203 µM (≈ 73.7 µg/mL); solubility kinetic (physchem [4]; [13]): 203 µM (≈ 73.7 µg/mL)
7 | CN(C)c1ncnc2oc(-c3c(F)c(F)c(F)c(F)c3F)nc12 [Compound 6, CN(C)c1ncnc2oc(nc12)-c1c(c(c(c(c1F)F)F)F)F] | >50 | >50 mLmin/g | > 100 | 0.2 (≈ 0.066 µg/mL) | 1.4 (≈ 0.462 µg/mL) | 0.2 (≈ 0.066 µg/mL) | 1.4 (≈ 0.462 µg/mL) | 1.4 (≈ 0.462 µg/mL) | 0.15 (≈ 0.0495 µg/mL) | >50 | >50 mLmin/g | 1 (≈ 0.33 µg/mL) | 1.0 (≈ 0.33 µg/mL) | –
8 | CN(C)c1ncnc2c1nc(-c1c(F)c(F)c(F)c(F)c1F)n2C [Compound 7, CN(C)c1ncnc2n(c(nc12)-c1c(c(c(c(c1F)F)F)F)F)C] | – | – | > 100 | 1.9 (≈ 0.652 µg/mL) | > 50 | 1.9 (≈ 0.652 µg/mL) | > 50 | > 50 | 1.7 (≈ 0.584 µg/mL) | 8.4 | 8.4 mLmin/g | 26 (≈ 8.92 µg/mL) | 26 (≈ 8.92 µg/mL) | –
9 | CN(C)c1ncnc2sc(-c3c(F)c(F)cc(F)c3F)nc12 [Compound 2, CN(C)c1ncnc2sc(nc12)-c1c(c(cc(c1F)F)F)F] | – | – | > 100 | > 50 | > 50 | > 50 | > 50 | > 50 | 4.7 (≈ 1.54 µg/mL) | >50 | >50 mLmin/g | – | – | –
10 | CCOC(=O)c1nc(C)oc1NC(=O)c1cc(F)c(F)c(F)c1 [Compound 26, CCOC(=O)c1nc(oc1NC(=O)c1cc(c(c(c1)F)F)F)C] | – | – | – | > 50 | > 50 | > 50 | > 50 | > 50 | > 50 | – | – | – | – | Mouse micro Cl [2, 11]: 7.1 mLmin/g; Microsomal Cli ([2]; supplement data table): 7.1 mL/min/g; chromatographic logD (physchem [3]): 2.3; solubility kinetic (physchem [4]; [12]): 241 µM (≈ 79.1 µg/mL); solubility kinetic (physchem [4]; [13]): 241 µM (≈ 79.1 µg/mL)
11 | COC(=O)c1cccnc1NC(=O)c1c(F)c(F)c(F)c(F)c1F [Compound 17, COC(=O)c1cccnc1NC(=O)c1c(c(c(c(c1F)F)F)F)F] | – | – | > 100 | 9.4 (≈ 3.25 µg/mL) | > 50 | 9.4 (≈ 3.25 µg/mL) | > 50 | > 50 | 12.5 (≈ 4.33 µg/mL) | 47 | 47 mLmin/g | – | – | –
12 | Fc1c(F)c(F)c(-c2nc3c(N4CCOCC4)ncnc3s2)c(F)c1F [Compound 9, Fc1c(c(c(c(c1F)F)-c1nc2c(ncnc2s1)N1CCOCC1)F)F] | – | – | > 100 | – | 0.6 (≈ 0.233 µg/mL) | – | 0.6 (≈ 0.233 µg/mL) | 0.6 (≈ 0.233 µg/mL) | 0.07 (≈ 0.0272 µg/mL) | 43 | 43 mLmin/g | 2.8 (≈ 1.09 µg/mL) | 2.8 (≈ 1.09 µg/mL) | –
13 | COC(=O)c1ccncc1NC(=O)c1c(F)c(F)c(F)c(F)c1F [Compound 18, COC(=O)c1ccncc1NC(=O)c1c(c(c(c(c1F)F)F)F)F] | – | – | > 100 | 4.7 (≈ 1.63 µg/mL) | 12.5 (≈ 4.33 µg/mL) | 4.7 (≈ 1.63 µg/mL) | 12.5 (≈ 4.33 µg/mL) | 12.5 (≈ 4.33 µg/mL) | 4.7 (≈ 1.63 µg/mL) | 27 | 27 mLmin/g | 109 (≈ 37.7 µg/mL) | 109 (≈ 37.7 µg/mL) | chromatographic logD (physchem [3]): 2.8
14 | CN(C)c1nccc2oc(-c3c(F)c(F)c(F)c(F)c3F)nc12 [Compound 14, CN(C)c1nccc2oc(nc12)-c1c(c(c(c(c1F)F)F)F)F] | >50 | >50 mLmin/g | > 100 | 3.1 (≈ 1.02 µg/mL) | 9.4 (≈ 3.09 µg/mL) | 3.1 (≈ 1.02 µg/mL) | 9.4 (≈ 3.09 µg/mL) | 6.3 (≈ 2.07 µg/mL) | 3.1 (≈ 1.02 µg/mL) | >50 | >50 mLmin/g | – | – | –
15 | Fc1c(F)c(F)c(-c2nc3c(N4CCOCC4)ncnc3o2)c(F)c1F [Compound 10, Fc1c(c(c(c(c1F)F)-c1nc2c(ncnc2o1)N1CCOCC1)F)F] | – | – | 49 | 0.2 (≈ 0.0745 µg/mL) | 1.2 (≈ 0.447 µg/mL) | 0.2 (≈ 0.0745 µg/mL) | 1.2 (≈ 0.447 µg/mL) | 1.2 (≈ 0.447 µg/mL) | 0.15 (≈ 0.0558 µg/mL) | – | – | – | – | Mouse Heps Cl ([1]; intrinsic clearance (Cli), mouse hepatocytes, Tables 1-4): >50 mLmin/g; Hepatocyte Cli ([1]; supplement data table): >50 mL/min/g; IC50 (HepG2 cells; HepG2, read-out: Hs-HEPG IC50): 48 µM; Mouse micro Cl [2, 11]: 44 mLmin/g; Microsomal Cli ([2]; supplement data table): 44 mL/min/g; solubility kinetic (physchem [4]; kinetic from dmso stock, kinetic solubility in water, read-out: Kin. Sol): 13.6 µM (≈ 5.06 µg/mL); solubility kinetic (physchem [4]; [13]): 14 µM (≈ 5.21 µg/mL)
16 | CNc1ncnc2oc(-c3c(F)c(F)c(F)c(F)c3F)nc12 [Compound 12, CNc1ncnc2oc(nc12)-c1c(c(c(c(c1F)F)F)F)F] | 4.7 | 4.7 mLmin/g | > 100 | > 50 | > 50 | > 50 | > 50 | > 50 | > 50 | <0.5 | 0.5 mLmin/g | 227 (≈ 71.8 µg/mL) | 228 (≈ 72.1 µg/mL) | –
17 | CN(C)c1ncnc2sc(-c3ccc(F)cc3)nc12 [Compound 5, CN(C)c1ncnc2sc(nc12)-c1ccc(cc1)F] | – | – | > 100 | > 50 | > 50 | > 50 | > 50 | > 50 | 19 (≈ 5.21 µg/mL) | >50 | >50 mLmin/g | – | – | –
18 | CN(C)c1ncnc2sc(-c3cc(F)c(F)c(F)c3)nc12 [Compound 4, CN(C)c1ncnc2sc(nc12)-c1cc(c(c(c1)F)F)F] | – | – | > 100 | > 50 | > 50 | > 50 | > 50 | > 50 | > 50 | >50 | >50 mLmin/g | – | – | –
19 | CCN(CC)c1ncnc2sc(-c3c(F)c(F)c(F)c(F)c3F)nc12 [Compound 8, CCN(CC)c1ncnc2sc(nc12)-c1c(c(c(c(c1F)F)F)F)F] | – | – | > 100 | 0.3 (≈ 0.112 µg/mL) | 0.78 (≈ 0.292 µg/mL) | 0.3 (≈ 0.112 µg/mL) | 0.8 (≈ 0.299 µg/mL) | 0.8 (≈ 0.299 µg/mL) | 0.4 (≈ 0.15 µg/mL) | 26 | 26 mLmin/g | 0.142 (≈ 0.0532 µg/mL) | – | solubility kinetic (physchem [4]; water, kinetic from dmso stock): 0.1 µM (≈ 0.0374 µg/mL)
